ChEMBL document CHEMBL4219066, “Identification and Mitigation of Reactive Metabolites of 2-Aminoimidazole-Containing Microsomal Prostaglandin E Synthase-1 Inhibitors Terminated Due to Clinical Drug-Induced Liver Injury” (J Med Chem, 2018)

Tests used:
[1] = Drug metabolism in rat hepatocytes assessed as 2-amino-5-((R)-1-(carboxymethylamino)-3-((2-(2-chloro-5-(pivalamidomethyl)benzamido)-1H-imidazol-5-yl)disulfanyl)-1-oxopropan-2-ylamino)-5-oxopentanoic acid formation at 2 uM after 4 hrs by LC-MS/MS analysis; assay type: ADME, cell-based, Hepatocyte
[2] = Drug metabolism in rat hepatocytes assessed as 2-chloro-5-((3-hydroxy-2,2-dimethylpropanamido)methyl)-N-(1H-imidazol-2-yl)benzamide formation at 2 uM after 4 hrs by LC-MS/MS analysis; assay type: ADME, cell-based, Hepatocyte
[3] = Drug metabolism in dog hepatocytes assessed as 2-chloro-5-((3-hydroxy-2,2-dimethylpropanamido)methyl)-N-(1H-imidazol-2-yl)benzamide formation at 2 uM after 4 hrs by LC-MS/MS analysis; assay type: ADME, cell-based, Canis lupus familiaris, Hepatocyte
[4] = Drug metabolism in human hepatocytes assessed as 2-chloro-5-((3-hydroxy-2,2-dimethylpropanamido)methyl)-N-(1H-imidazol-2-yl)benzamide formation at 2 uM after 4 hrs by LC-MS/MS analysis; assay type: ADME, cell-based, Hepatocyte
[5] = Drug metabolism in rat hepatocytes assessed as 2-chloro-N-(4,5-dihydroxy-4,5-dihydro-1H-imidazol-2-yl)-5-(pivalamidomethyl)benzamide formation at 2 uM after 4 hrs by LC-MS/MS analysis; assay type: ADME, cell-based, Hepatocyte
[6] = Drug metabolism in dog hepatocytes assessed as 2-chloro-N-(4,5-dihydroxy-4,5-dihydro-1H-imidazol-2-yl)-5-(pivalamidomethyl)benzamide formation at 2 uM after 4 hrs by LC-MS/MS analysis; assay type: ADME, cell-based, Canis lupus familiaris, Hepatocyte
[7] = Drug metabolism in human hepatocytes assessed as 2-chloro-N-(4,5-dihydroxy-4,5-dihydro-1H-imidazol-2-yl)-5-(pivalamidomethyl)benzamide formation at 2 uM after 4 hrs by LC-MS/MS analysis; assay type: ADME, cell-based, Hepatocyte
[8] = Drug metabolism in rat hepatocytes assessed as 2-chloro-N-(4-hydroxy-1H-imidazol-2-yl)-5-(pivalamidomethyl)benzamide formation at 2 uM after 4 hrs by LC-MS/MS analysis; assay type: ADME, cell-based, Hepatocyte
[9] = Drug metabolism in dog hepatocytes assessed as 2-chloro-N-(4-hydroxy-1H-imidazol-2-yl)-5-(pivalamidomethyl)benzamide formation at 2 uM after 4 hrs by LC-MS/MS analysis; assay type: ADME, cell-based, Canis lupus familiaris, Hepatocyte
[10] = Drug metabolism in human hepatocytes assessed as 2-chloro-N-(4-hydroxy-1H-imidazol-2-yl)-5-(pivalamidomethyl)benzamide formation at 2 uM after 4 hrs by LC-MS/MS analysis; assay type: ADME, cell-based, Hepatocyte
[11] = Drug metabolism in dog hepatocytes assessed as N-carbamimidoyl-2-chloro-5-(pivalamidomethyl)benzamide formation at 2 uM after 4 hrs by LC-MS/MS analysis; assay type: ADME, cell-based, Canis lupus familiaris, Hepatocyte
[12] = Drug metabolism in Sprague-Dawley rat plasma assessed as 2-chloro-5-((3-hydroxy-2,2-dimethylpropanamido)methyl)-N-(1H-imidazol-2-yl)benzamide formation at 1000 mg/kg, po measured after 2 hrs post dose by LC/MS analysis; assay type: ADME, organism-based; details: in vivo
[13] = Drug metabolism in Beagle dog plasma assessed as 2-chloro-5-((3-hydroxy-2,2-dimethylpropanamido)methyl)-N-(1H-imidazol-2-yl)benzamide formation at 300 to 600 mg/kg, po measured after 2 hrs post dose by LC/MS analysis; assay type: ADME, organism-based, Canis lupus familiaris; details: in vivo
[14] = In vivo drug metabolism in human plasma assessed as 2-chloro-5-((3-hydroxy-2,2-dimethylpropanamido)methyl)-N-(1H-imidazol-2-yl)benzamide formation HPLC-MS analysis; assay type: ADME, organism-based
[15] = Drug metabolism in Sprague-Dawley rat plasma assessed as 2-chloro-N-(4,5-dihydroxy-4,5-dihydro-1H-imidazol-2-yl)-5-(pivalamidomethyl)benzamide formation at 1000 mg/kg, po measured after 2 hrs post dose by LC/MS analysis; assay type: ADME, organism-based; details: in vivo
[16] = Drug metabolism in Beagle dog plasma assessed as 2-chloro-N-(4,5-dihydroxy-4,5-dihydro-1H-imidazol-2-yl)-5-(pivalamidomethyl)benzamide formation at 300 to 600 mg/kg, po measured after 2 hrs post dose by LC/MS analysis; assay type: ADME, organism-based, Canis lupus familiaris; details: in vivo
[17] = Drug metabolism in Sprague-Dawley rat plasma assessed as 2-chloro-N-(4-hydroxy-1H-imidazol-2-yl)-5-(pivalamidomethyl)benzamide formation at 1000 mg/kg, po measured after 2 hrs post dose by LC/MS analysis; assay type: ADME, organism-based; details: in vivo
[18] = Drug metabolism in Beagle dog plasma assessed as 2-chloro-N-(4-hydroxy-1H-imidazol-2-yl)-5-(pivalamidomethyl)benzamide formation at 300 to 600 mg/kg, po measured after 2 hrs post dose by LC/MS analysis; assay type: ADME, organism-based, Canis lupus familiaris; details: in vivo
[19] = In vivo drug metabolism in human plasma assessed as 2-chloro-N-(4-hydroxy-1H-imidazol-2-yl)-5-(pivalamidomethyl)benzamide formation HPLC-MS analysis; assay type: ADME, organism-based
[20] = Drug metabolism in Sprague-Dawley rat plasma assessed as N-carbamimidoyl-2-chloro-5-(pivalamidomethyl)benzamide formation at 1000 mg/kg, po measured after 2 hrs post dose by LC/MS analysis; assay type: ADME, organism-based; details: in vivo
[21] = Drug metabolism in Beagle dog plasma assessed as N-carbamimidoyl-2-chloro-5-(pivalamidomethyl)benzamide formation at 300 to 600 mg/kg, po measured after 2 hrs post dose by LC/MS analysis; assay type: ADME, organism-based, Canis lupus familiaris; details: in vivo
[22] = In vivo drug metabolism in human plasma assessed as N-carbamimidoyl-2-chloro-5-(pivalamidomethyl)benzamide formation by HPLC-MS analysis; assay type: ADME, organism-based
[23] = Drug metabolism in Sprague-Dawley rat plasma assessed as 2-chloro-5-(pivalamidomethyl)benzoic acid formation at 1000 mg/kg, po measured after 2 hrs post dose by LC/MS analysis; assay type: ADME, organism-based; details: in vivo
[24] = Drug metabolism in Beagle dog plasma assessed as 2-chloro-5-(pivalamidomethyl)benzoic acid formation at 300 to 600 mg/kg, po measured after 2 hrs post dose by LC/MS analysis; assay type: ADME, organism-based, Canis lupus familiaris; details: in vivo
[25] = Drug metabolism in Sprague-Dawley rat plasma assessed as 5-(aminomethyl)-2-chloro-N-(1H-imidazol-2-yl)benzamide formation at 1000 mg/kg, po measured after 2 hrs post dose by LC/MS analysis; assay type: ADME, organism-based; details: in vivo
[26] = Drug metabolism in Beagle dog plasma assessed as 5-(aminomethyl)-2-chloro-N-(1H-imidazol-2-yl)benzamide formation at 300 to 600 mg/kg, po measured after 2 hrs post dose by LC/MS analysis; assay type: ADME, organism-based, Canis lupus familiaris; details: in vivo
[27] = In vivo drug metabolism in human urine assessed as 2-chloro-5-((3-hydroxy-2,2-dimethylpropanamido)methyl)-N-(1H-imidazol-2-yl)benzamide formation by HPLC-MS analysis; assay type: ADME, organism-based
[28] = In vivo drug metabolism in human urine assessed as 2-chloro-N-(4,5-dihydroxy-4,5-dihydro-1H-imidazol-2-yl)-5-(pivalamidomethyl)benzamide formation by HPLC-MS analysis; assay type: ADME, organism-based
[29] = In vivo drug metabolism in human urine assessed as 2-chloro-N-(4-hydroxy-1H-imidazol-2-yl)-5-(pivalamidomethyl)benzamide formation by HPLC-MS analysis; assay type: ADME, organism-based
[30] = In vivo drug metabolism in human urine assessed as N-carbamimidoyl-2-chloro-5-(pivalamidomethyl)benzamide formation by HPLC-MS analysis; assay type: ADME, organism-based
[31] = In vivo drug metabolism in human urine assessed as N-carbamimidoyl-2-chloro-5-((3-hydroxy-2,2-dimethylpropanamido)methyl)benzamide formation by HPLC-MS analysis; assay type: ADME, organism-based
[32] = In vivo drug metabolism in human urine assessed as (R)-2-amino-3-((2-(2-chloro-5-(pivalamidomethyl)benzamido)-1H-imidazol-5-yl)disulfanyl)propanoic acid formation by HPLC-MS analysis; assay type: ADME, organism-based
[33] = Drug metabolism in rat hepatocytes assessed as N-(6-oxa-2,4-diazabicyclo[3.1.0]hex-3-en-3-yl)-2-chloro-5-(pivalamidomethyl)benzamide formation at 2 uM after 4 hrs by LC-MS/MS analysis; assay type: ADME, cell-based, Hepatocyte
[34] = Drug metabolism in dog hepatocytes assessed as N-(6-oxa-2,4-diazabicyclo[3.1.0]hex-3-en-3-yl)-2-chloro-5-(pivalamidomethyl)benzamide formation at 2 uM after 4 hrs by LC-MS/MS analysis; assay type: ADME, cell-based, Canis lupus familiaris, Hepatocyte
[35] = Drug metabolism in human hepatocytes assessed as N-(6-oxa-2,4-diazabicyclo[3.1.0]hex-3-en-3-yl)-2-chloro-5-(pivalamidomethyl)benzamide formation at 2 uM after 4 hrs by LC-MS/MS analysis; assay type: ADME, cell-based, Hepatocyte
[36] = Drug metabolism in human liver microsomes assessed as N-(6-oxa-2,4-diazabicyclo[3.1.0]hex-3-en-3-yl)-2-chloro-5-(pivalamidomethyl)benzamide formation at 2 uM in presence of 1:1 ratio of unlabeled GSH and [glycine 13C2,15N]-labelled GSH after 0.5 hrs by HPLC-MS analysis; assay type: ADME, microsome
[37] = Drug metabolism in Sprague-Dawley rat plasma assessed as N-(6-oxa-2,4-diazabicyclo[3.1.0]hex-3-en-3-yl)-2-chloro-5-(pivalamidomethyl)benzamide formation at 1000 mg/kg, po measured after 2 hrs post dose by LC/MS analysis; assay type: ADME, organism-based; details: in vivo
[38] = Drug metabolism in Beagle dog plasma assessed as N-(6-oxa-2,4-diazabicyclo[3.1.0]hex-3-en-3-yl)-2-chloro-5-(pivalamidomethyl)benzamide formation at 300 to 600 mg/kg, po measured after 2 hrs post dose by LC/MS analysis; assay type: ADME, organism-based, Canis lupus familiaris; details: in vivo
[39] = In vivo drug metabolism in human plasma assessed as N-(6-oxa-2,4-diazabicyclo[3.1.0]hex-3-en-3-yl)-2-chloro-5-(pivalamidomethyl)benzamide formation HPLC-MS analysis; assay type: ADME, organism-based
[40] = In vivo drug metabolism in human urine assessed as N-(6-oxa-2,4-diazabicyclo[3.1.0]hex-3-en-3-yl)-2-chloro-5-(pivalamidomethyl)benzamide formation by HPLC-MS analysis; assay type: ADME, organism-based

Measured: Drug metabolism

CC(C)(C)C(=O)NCc1ccc(Cl)c(C(=O)Nc2ncc[nH]2)c1 [LY-3031207]
Metabolite_Notdetected: [33] | [34] | [35] | [36] | [37] | [38] | [39] | [40]
Metabolite_Detected: all other assays above
